Data set [1] can be described thus: Unbound brain-to-plasma concentration ratio in rat at 2.5 uM incubated for 4 hrs by equilibrium dialysis method. As to conditions: brain and plasma (unbound), read-out: K(p,uu,brain); call rule not given here. The class given is ADME, cell-free. (In general: In equilibrium dialysis only unbound substance equilibrates across the membrane.)
Data set [2] is described as follows: Unbound brain-to-plasma concentration ratio in non-human primates administered orally and measured after 120 mins by LC/MS/MS analysis. Format: ADME. As to conditions: po, read-out: K(p,uu,brain).
A short description of data set [3]: In vivo inhibition of LRRK2 in CD rat assessed as reduction in phosphorylation at Ser935 residue in striatum at 10 mg/kg, po measured after 2 hrs by MSD assay. The class given is functional.
Data set [4] is described as follows: Unbound brain-to-plasma concentration ratio in CD rat 1 to 100 mg/kg, po measured after 120 mins by LC/MS/MS analysis. The class given is ADME, organism-based. Conditions: brain and plasma (unbound), dose 1-100 mg/kg, read-out: K(p,uu,brain).
A further data set relates to UGT1A6. Nature of the data set: Toxicity in rat assessed as fold increase in UGT1A6 transcriptional activity in liver at 75 mg/kg, po bid administered for 4 days relative to control. The class given is organism-based. As to conditions: time 4 day, read-out: FC.
Data set [5] has as its system Salmonella typhimurium. Nature of the data set: Mutagenicity in Salmonella typhimurium TA100 at 30 to 5000 ug incubated for 48 hrs in presence of liver S9 fraction by AMES test. The class given is toxicity, organism-based, Salmonella enterica subsp. enterica serovar Typhimurium. Conditions: s9, 48 h, dose 30-5000 µg.
A short description of data set [6]: AUC in rat at 10 to 75 mg/kg, po bid administered for 4 days. Format: ADME, organism-based. As to conditions: in vivo, 96 h, dose 10-75 mg/kg. Further details: time 4 day.
Data set [7] in a line: Oral bioavailability in Beagle dog at 0.5 mg/kg by LC-MS/MS analysis. The class given is ADME, organism-based, Canis lupus familiaris. As to conditions: in vivo.
The nature of data set [8]: Intrinsic clearance in human hepatocytes at 0.3 uM incubated for 90 mins by LC/MS/MS analysis. The class given is ADME, cell-based, Hepatocyte. Conditions: read-out: CLH.
For data set [9], the system named is rat Mdr1a (P-gp). Kind of data set: Apparent permeability from apical to basolateral side in rat Mdr1a-transfected pig LLC-PK1 cells at 0.1 to 1 uM measured after 3 hrs by LC/MS/MS analysis. Conditions: dose 0.1-1 µM. Format: ADME, cell-based, Sus scrofa.
Data set [10] can be described thus: Intrinsic clearance in Wistar Han rat at 2 mg/kg, iv by LC-MS/MS analysis. The class given is ADME, organism-based. As to conditions: in vivo.
Data set [11] in a line: Total plasma clearance in Wistar Han rat at 2 mg/kg, iv by LC-MS/MS analysis. The class given is ADME, organism-based.
Data set [12] is described as follows: Toxicity in rat assessed as elevation of AhR gene expression at 10 to 75 mg/kg, po bid administered for 4 days. Conditions: in vivo, 96 h, dose 10-75 mg/kg, time 4 day. Format: organism-based.
The test system of data set [13] is rat Mdr1a (P-gp). Kind of data set: Efflux ratio of apparent permeability across basolateral to apical side over apical to basolateral side in rat Mdr1a-transfected pig LLC-PK1 cells at 0.1 to 1 uM measured after 3 hrs by LC/MS/MS analysis. As to conditions: dose 0.1-1 µM. The class given is ADME, cell-based, Sus scrofa.
Data set [14] has as its target Leucine-rich repeat serine/threonine-protein kinase 2 (Homo sapiens) (UniProt Q5S007). Nature of the data set: Ex vivo inhibition of LRRK2 in human PBMC assessed as unbound concentration required for reduction in LRRK2 phosphorylation at Ser935 residue incubated for 90 mins by MSD assay. Format: cell-based.
Data set [15] can be described thus: Intrinsic clearance in Rhesus monkey at 0.1 mg/kg, iv by LC-MS/MS analysis. Conditions: in vivo. The class given is ADME, organism-based, Macaca mulatta.
Data set [16] is described as follows: Toxicity in rat assessed as drug tolerability at 10 to 75 mg/kg, po bid administered for 4 days. Format: organism-based. Conditions: in vivo, 96 h, dose 10-75 mg/kg, time 4 day.
Data set [17] has as its target T1, Natriuretic peptides A (Homo sapiens) (UniProt P01160).
T1 sequence (whole entry): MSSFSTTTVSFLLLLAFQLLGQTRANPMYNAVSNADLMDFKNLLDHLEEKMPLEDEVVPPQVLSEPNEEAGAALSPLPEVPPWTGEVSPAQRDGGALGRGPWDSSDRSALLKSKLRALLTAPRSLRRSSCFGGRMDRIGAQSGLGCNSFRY
Nature of the data set: Agonist activity at ANF (unknown origin) at 10 uM. As to conditions: filed as agonist.

The nature of data set [18]: Oral bioavailability in Wistar Han rat at 10 mg/kg by LC-MS/MS analysis. Format: ADME, organism-based. As to conditions: in vivo.
The nature of data set [19]: Intrinsic clearance in dog hepatocytes at 0.3 uM incubated for 90 mins by LC/MS/MS analysis. The class given is ADME, cell-based, Canis lupus familiaris, Hepatocyte. Conditions: read-out: CLH.
Data set [20] is described as follows: Intrinsic clearance in rat hepatocytes at 0.3 uM incubated for 90 mins by LC/MS/MS analysis. Format: ADME, cell-based, Hepatocyte. As to conditions: read-out: CLH.
The nature of data set [21]: Toxicity in rat assessed as elevation of inflammatory response related gene expression at 10 to 75 mg/kg, po bid administered for 4 days. Format: organism-based. Conditions: in vivo, 96 h, dose 10-75 mg/kg, time 4 day.
In data set [22] the target is Voltage-gated inwardly rectifying potassium channel KCNH2 (Homo sapiens, UniProt Q12809). Kind of data set: Inhibition of human ERG by voltage clamp assay. Format: toxicity.
Data set [23] is described as follows: MRT in Wistar Han rat at 2 mg/kg, iv by LC-MS/MS analysis. Format: ADME, organism-based. Conditions: in vivo.
Data set [24] can be described thus: Intrinsic clearance in Beagle dog at 0.25 mg/kg, iv by LC-MS/MS analysis. Format: ADME, organism-based, Canis lupus familiaris. As to conditions: in vivo.
The nature of data set [25]: Toxicity in rat assessed as elevation of PXR gene expression at 10 to 75 mg/kg, po bid administered for 4 days. The class given is organism-based. Conditions: in vivo, 96 h, dose 10-75 mg/kg, time 4 day.
The nature of data set [26]: Thermodynamic solubility of the compound in FaSSIF measured after 24 hrs by reverse phase UPLC analysis. Format: physicochemical. Conditions: read-out: Therm_solubility.
The test system of data set [27] is Salmonella typhimurium. Kind of data set: Mutagenicity in Salmonella typhimurium TA98 at 30 to 5000 ug incubated for 48 hrs in presence of liver S9 fraction by AMES test. Format: toxicity, organism-based, Salmonella enterica subsp. enterica serovar Typhimurium. Conditions: s9, 48 h, dose 30-5000 µg.
A short description of data set [28]: MRT in Beagle dog at 0.25 mg/kg, iv by LC-MS/MS analysis. Format: ADME, organism-based, Canis lupus familiaris. As to conditions: in vivo.
The subject of data set [29] is Salmonella typhimurium. Kind of data set: Mutagenicity in Salmonella typhimurium TA1535 at 30 to 5000 ug incubated for 48 hrs in presence of liver S9 fraction by AMES test. The class given is toxicity, organism-based, Salmonella enterica subsp. enterica serovar Typhimurium. As to conditions: s9, 48 h, dose 30-5000 µg.
Data set [30] is described as follows: MRT in Rhesus monkey at 0.1 mg/kg, iv by LC-MS/MS analysis. The class given is ADME, organism-based, Macaca mulatta. As to conditions: in vivo.
Data set [31] is described as follows: Total plasma clearance in Beagle dog at 0.25 mg/kg, iv by LC-MS/MS analysis. The class given is ADME, organism-based, Canis lupus familiaris.
In data set [32] the test system is mouse Bcrp. Kind of data set: Efflux ratio of apparent permeability across basolateral to apical over apical to basolateral side in mouse Bcrp-transfected dog MDCK-II cells at 0.1 to 1 uM measured after 3 hrs by LC/MS/MS analysis. The class given is ADME, cell-based, Canis lupus familiaris. As to conditions: dose 0.1-1 µM.
Another data set has as its system CYP1A1. Nature of the data set: Toxicity in rat assessed as fold induction of CYP1A1 transcriptional activity in liver at 10 to 75 mg/kg, po bid administered for 4 days relative to control. As to conditions: dose 10-75 mg/kg, time 4 day, read-out: FC. The class given is organism-based.
The next data set relates to GSTA5. Kind of data set: Toxicity in rat assessed as fold increase in GSTA5 transcriptional activity in liver at 75 mg/kg, po bid administered for 4 days relative to control. Format: organism-based. Conditions: time 4 day, read-out: FC.
The test system of data set [33] is mouse Bcrp. Nature of the data set: Apparent permeability in mouse Bcrp-transfected dog MDCK-II cells at 0.1 to 1 uM measured after 3 hrs by LC/MS/MS analysis. Format: ADME, cell-based, Canis lupus familiaris. Conditions: dose 0.1-1 µM.
The target in data set [34] is MAP/microtubule affinity-regulating kinase 3 (Homo sapiens, UniProt P27448). Nature of the data set: Inhibition of MARK3 (unknown origin).
The nature of data set [35]: Total plasma clearance in Rhesus monkey at 0.1 mg/kg, iv by LC-MS/MS analysis. Format: ADME, organism-based, Macaca mulatta.

The structures appear in SMILES notation. In brackets after ≈: the same amount, converted by molar mass.

Sequence of MAP/microtubule affinity-regulating kinase 3 (P27448 whole entry): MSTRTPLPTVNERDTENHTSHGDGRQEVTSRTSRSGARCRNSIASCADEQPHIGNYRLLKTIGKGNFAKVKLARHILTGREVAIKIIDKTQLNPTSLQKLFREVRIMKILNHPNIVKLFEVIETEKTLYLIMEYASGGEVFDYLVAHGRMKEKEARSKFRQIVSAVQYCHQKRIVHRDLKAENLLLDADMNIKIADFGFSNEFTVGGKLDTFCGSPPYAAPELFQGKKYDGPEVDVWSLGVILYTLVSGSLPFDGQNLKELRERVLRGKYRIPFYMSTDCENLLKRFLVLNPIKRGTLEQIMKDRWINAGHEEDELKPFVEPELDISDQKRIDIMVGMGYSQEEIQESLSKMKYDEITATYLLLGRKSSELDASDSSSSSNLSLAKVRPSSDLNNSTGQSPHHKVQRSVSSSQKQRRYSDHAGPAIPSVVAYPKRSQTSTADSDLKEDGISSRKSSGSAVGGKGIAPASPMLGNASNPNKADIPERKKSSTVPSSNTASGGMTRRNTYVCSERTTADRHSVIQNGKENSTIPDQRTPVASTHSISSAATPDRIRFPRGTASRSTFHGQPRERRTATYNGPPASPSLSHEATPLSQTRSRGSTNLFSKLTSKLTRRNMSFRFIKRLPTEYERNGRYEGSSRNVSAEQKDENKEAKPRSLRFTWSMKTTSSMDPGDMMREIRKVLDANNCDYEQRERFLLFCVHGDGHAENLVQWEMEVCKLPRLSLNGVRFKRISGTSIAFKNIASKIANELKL
Sequence of Leucine-rich repeat serine/threonine-protein kinase 2 (Homo sapiens) (Q5S007 whole entry): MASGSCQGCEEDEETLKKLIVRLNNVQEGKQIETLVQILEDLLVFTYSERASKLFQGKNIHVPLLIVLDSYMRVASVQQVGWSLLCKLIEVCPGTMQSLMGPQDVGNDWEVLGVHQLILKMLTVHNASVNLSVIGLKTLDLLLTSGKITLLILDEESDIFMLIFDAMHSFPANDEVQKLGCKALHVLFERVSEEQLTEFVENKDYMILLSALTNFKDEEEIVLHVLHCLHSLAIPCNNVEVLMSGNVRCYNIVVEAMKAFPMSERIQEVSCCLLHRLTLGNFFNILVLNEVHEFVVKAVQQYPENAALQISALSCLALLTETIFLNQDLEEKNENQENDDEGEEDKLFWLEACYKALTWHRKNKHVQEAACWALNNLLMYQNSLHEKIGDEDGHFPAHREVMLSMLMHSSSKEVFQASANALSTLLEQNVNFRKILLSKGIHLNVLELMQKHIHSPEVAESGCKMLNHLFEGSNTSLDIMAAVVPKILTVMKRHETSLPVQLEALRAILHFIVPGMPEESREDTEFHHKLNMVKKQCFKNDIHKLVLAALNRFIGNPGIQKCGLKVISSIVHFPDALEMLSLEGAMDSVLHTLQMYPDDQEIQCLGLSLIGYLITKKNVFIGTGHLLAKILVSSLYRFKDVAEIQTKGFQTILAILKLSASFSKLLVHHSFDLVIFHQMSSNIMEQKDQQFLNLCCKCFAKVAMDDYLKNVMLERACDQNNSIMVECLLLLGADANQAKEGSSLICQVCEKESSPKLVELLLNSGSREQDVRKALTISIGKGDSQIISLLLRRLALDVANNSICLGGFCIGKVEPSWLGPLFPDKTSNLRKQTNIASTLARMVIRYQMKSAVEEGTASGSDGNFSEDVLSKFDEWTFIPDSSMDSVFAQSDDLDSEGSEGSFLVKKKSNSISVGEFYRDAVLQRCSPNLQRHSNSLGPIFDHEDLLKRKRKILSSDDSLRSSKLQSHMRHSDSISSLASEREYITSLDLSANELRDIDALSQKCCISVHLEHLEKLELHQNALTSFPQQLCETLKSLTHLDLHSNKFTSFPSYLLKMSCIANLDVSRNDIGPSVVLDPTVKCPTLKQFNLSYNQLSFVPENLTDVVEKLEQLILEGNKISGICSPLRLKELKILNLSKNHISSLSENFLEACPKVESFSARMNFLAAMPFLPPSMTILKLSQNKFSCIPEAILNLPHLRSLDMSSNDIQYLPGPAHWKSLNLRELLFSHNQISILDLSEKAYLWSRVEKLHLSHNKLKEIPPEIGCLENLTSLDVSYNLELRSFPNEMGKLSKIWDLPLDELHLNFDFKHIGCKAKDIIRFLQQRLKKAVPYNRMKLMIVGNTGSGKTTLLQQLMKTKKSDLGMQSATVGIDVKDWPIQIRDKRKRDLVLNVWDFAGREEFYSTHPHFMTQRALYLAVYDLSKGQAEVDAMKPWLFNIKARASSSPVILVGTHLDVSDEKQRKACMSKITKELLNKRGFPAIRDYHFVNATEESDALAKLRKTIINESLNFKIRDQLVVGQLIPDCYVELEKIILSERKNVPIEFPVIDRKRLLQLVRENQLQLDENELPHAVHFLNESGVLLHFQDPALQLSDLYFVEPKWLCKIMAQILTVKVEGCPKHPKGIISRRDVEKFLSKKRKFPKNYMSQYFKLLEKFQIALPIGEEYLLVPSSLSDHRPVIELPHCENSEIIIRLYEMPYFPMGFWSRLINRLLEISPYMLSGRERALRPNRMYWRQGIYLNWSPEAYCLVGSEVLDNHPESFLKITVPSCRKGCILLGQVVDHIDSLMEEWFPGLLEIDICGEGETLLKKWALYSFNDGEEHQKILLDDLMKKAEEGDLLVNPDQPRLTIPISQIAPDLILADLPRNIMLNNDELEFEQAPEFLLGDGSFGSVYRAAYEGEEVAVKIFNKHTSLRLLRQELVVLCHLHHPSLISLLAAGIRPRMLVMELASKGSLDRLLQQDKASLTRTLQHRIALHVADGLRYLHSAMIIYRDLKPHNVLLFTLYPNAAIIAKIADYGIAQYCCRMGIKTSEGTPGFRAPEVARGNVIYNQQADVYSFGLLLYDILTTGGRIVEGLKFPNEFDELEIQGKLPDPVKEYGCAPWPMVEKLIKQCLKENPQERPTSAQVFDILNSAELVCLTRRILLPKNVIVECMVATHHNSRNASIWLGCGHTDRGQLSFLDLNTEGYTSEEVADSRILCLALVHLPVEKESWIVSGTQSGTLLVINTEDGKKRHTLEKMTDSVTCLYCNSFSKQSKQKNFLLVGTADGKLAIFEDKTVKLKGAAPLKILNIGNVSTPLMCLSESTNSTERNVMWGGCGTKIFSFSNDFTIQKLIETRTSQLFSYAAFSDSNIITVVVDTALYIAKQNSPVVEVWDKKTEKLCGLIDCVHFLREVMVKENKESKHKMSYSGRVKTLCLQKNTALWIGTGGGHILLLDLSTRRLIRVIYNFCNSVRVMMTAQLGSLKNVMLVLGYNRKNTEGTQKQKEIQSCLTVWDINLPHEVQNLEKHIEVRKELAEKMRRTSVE
Sequence of Voltage-gated inwardly rectifying potassium channel KCNH2 (Q12809 whole entry): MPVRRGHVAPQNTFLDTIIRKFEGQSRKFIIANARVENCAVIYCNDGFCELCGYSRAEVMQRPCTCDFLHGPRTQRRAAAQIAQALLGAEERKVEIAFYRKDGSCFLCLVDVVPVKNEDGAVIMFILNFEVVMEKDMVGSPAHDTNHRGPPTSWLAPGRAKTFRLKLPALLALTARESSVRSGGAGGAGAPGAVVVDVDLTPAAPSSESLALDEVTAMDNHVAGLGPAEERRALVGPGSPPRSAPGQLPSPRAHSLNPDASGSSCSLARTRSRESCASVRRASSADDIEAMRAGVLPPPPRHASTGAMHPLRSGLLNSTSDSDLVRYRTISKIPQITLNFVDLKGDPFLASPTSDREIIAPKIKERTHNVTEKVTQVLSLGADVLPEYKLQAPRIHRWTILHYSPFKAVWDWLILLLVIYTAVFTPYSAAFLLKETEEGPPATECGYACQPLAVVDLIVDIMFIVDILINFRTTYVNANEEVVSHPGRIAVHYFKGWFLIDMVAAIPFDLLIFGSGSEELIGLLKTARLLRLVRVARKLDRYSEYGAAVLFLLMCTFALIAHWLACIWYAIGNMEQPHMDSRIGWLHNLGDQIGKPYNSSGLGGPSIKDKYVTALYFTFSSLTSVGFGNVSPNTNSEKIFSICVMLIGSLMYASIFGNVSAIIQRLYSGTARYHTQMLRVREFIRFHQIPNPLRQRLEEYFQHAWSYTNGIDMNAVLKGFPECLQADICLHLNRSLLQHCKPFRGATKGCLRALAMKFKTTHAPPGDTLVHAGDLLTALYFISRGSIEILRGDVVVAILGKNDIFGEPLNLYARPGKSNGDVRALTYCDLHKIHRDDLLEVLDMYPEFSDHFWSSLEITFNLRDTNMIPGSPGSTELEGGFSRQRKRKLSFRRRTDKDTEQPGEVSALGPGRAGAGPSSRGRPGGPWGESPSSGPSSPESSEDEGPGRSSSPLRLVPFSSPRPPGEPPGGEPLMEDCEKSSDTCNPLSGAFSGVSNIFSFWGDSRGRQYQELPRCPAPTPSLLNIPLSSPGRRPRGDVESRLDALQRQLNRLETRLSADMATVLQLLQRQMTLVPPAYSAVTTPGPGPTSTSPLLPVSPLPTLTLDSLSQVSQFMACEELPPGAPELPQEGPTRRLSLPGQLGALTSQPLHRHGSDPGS

Usually inhibition in vivo stands for the change of the read-out against control, counted positive when it falls. Consider `C[C@@H]1CN(c2cc(-c3n[nH]c4ccc(OC5(C)CC5)cc34)ncn2)C[C@H](C)O1` [MLi-2], for which the Kp uu at 4 h, 2.5 µM in data set [1] came to 0.49. Besides, the values for the Kp uu at 2 h in data set [2] and in data set [4] were 0.37 and 0.7, respectively. Also, the inhibition in vivo at 10 mg/kg in [3] amounted to 93%.

Usually AUC stands for concentration integrated over time. For orientation: bioavailability means dose-corrected exposure relative to a reference, in per cent. The Papp A→B is how fast a substance crosses the layer from the apical side. Broadly, the clearance is a measure of how efficiently the substance is removed, as volume per time. By efflux ratio is commonly meant a quotient of directional permeabilities that is used to spot active efflux. By IC50 is commonly meant the concentration needed to halve the response being measured. In general, MRT refers to the average time that molecules of a dose stay in the body. In general, Papp refers to a coefficient for how fast a substance crosses the barrier. On to `Cc1c(Nc2ncc3cc(Cl)c(C4CCN([C@@H]5COC[C@@H]5O)CC4)cc3n2)cnn1[C@@H]1CC1(F)F`, for which the fold induction at 96 h in the data set on UGT1A6 turned out to be 2.5; with CYP1A1, 3; with GSTA5 it was 5. The Activity result was “Non-Toxic” in the data set with Salmonella typhimurium [5]; “Non-Toxic” in [12]; “Non-Toxic” in data set [16]; 60% in [17]; “Non-Toxic” in data set [21]; “Non-Toxic” in [25]. Moreover, the Activity entry in the data set with Salmonella typhimurium [27] and in the data set with Salmonella typhimurium [29] was “Non-Toxic” each time. Also, the Kp uu at 4 h, 2.5 µM in data set [1] turned out to be 0.43. In addition, the AUC in data set [6] is 16 µM·h. Moreover, the bioavailability in data set [7] stood at 65%; in [18], 64%. Besides, the CLint scaled at 0.3 µM amounted to 114 mL/min/kg in data set [8], 160 mL/min/kg in data set [19] and 464 mL/min/kg in [20]. Moreover, in the data set with rat Mdr1a (P-gp) [9], the apparent permeability from apical to basolateral (Papp A→B) at 3 h, up to 1 µM came out at 31 ×10⁻⁶ cm/s. Besides, the CL was 480 mL/min/kg in data set [10], 486 mL/min/kg in [15] and 205 mL/min/kg in data set [24]. The clearance in data set [11] turned out to be 28 mL/min/kg; in [31], 15 mL/min/kg; in data set [35], 29 mL/min/kg. The results for the efflux ratio at 3 h, up to 1 µM in the data set on rat Mdr1a (P-gp) [13] and in the data set with mouse Bcrp [32] were 4.3 and 4.1, respectively. The fIC50 in data set [14] was 2.6 nM. Moreover, the IC50 in [22] was determined as 6.2 µM; in data set [34], 5.7 µM. Also, the MRT in data set [23] amounted to 3.7 h; in data set [28] it was 16 h; in data set [30], 4.8 h. In data set [26], the solubility thermodynamic at 24 h amounted to 30 µg/mL (≈ 59.4 µM). For the same compound, in the data set with mouse Bcrp [33], the Papp at 3 h, up to 1 µM is 30 ×10⁻⁶ cm/s.

The values are drawn from ChEMBL document CHEMBL5042510, “Structure-Guided Discovery of Aminoquinazolines as Brain-Penetrant and Selective LRRK2 Inhibitors” (J Med Chem, 2022).
